Laboratory results as given in patent US10472336B2, “Modulators of indoleamine 2,3-dioxygenase” (GlaxoSmithKline Intellectual Property (No.2) Limited, priority 2015, dated 2019).
Structures can show the parent of a compound that is named as a salt.

Tests used:
[1] = biological target: T1, indoleamine 2, 3-dioxygenase (IDO1) (Homo sapiens, UniProt P14902); experiment: PBMC IDOi assay (kynurenine detection by mass spectrometry); assay type: cell-based; conditions: IFN-γ and LPS stimulated human PBMC, 2 days
Experimental: (§1) Compounds of the present invention were tested via high-throughput cellular assays utilizing detection of kynurenine via mass spectrometry and cytotoxicity as end-points. For the mass spectrometry and cytotoxicity assays, human peripheral blood mononuclear cells (PBMC) (PB003F; AllCells®, Alameda, Calif.) were stimulated with human interferon-γ (IFN-γ) (Sigma-Aldrich Corporation, St. Louis, Mo.) and lipopolysaccharide from Salmonella minnesota (LPS) (Invivogen, San Diego, Calif.) to induce the expression of indoleamine 2, 3-dioxygenase (IDO1). Compounds with IDO1 inhibitory properties decreased the amount of kynurenine produced by the cells via the tryptophan catabolic pathway. Cellular toxicity due to the effect of compound treatment was measured using CellTiter-Glo® reagent (CTG) (Promega Corporation, Madison, Wis.), which is based on luminescent detection of ATP, an indicator of metabolically active cells.
(§2) In preparation for the assays, test compounds were serially diluted 3-fold in DMSO from a typical top concentration of 5 mM and plated at 0.5 μL in 384-well, polystyrene, clear bottom, tissue culture treated plates with lids (Greiner Bio-One, Kremsmünster, Austria) to generate 11-point dose response curves. Low control wells (0% kynurenine or 100% cytotoxicity) contained either 0.5 μL of DMSO in the presence of unstimulated (−IFN-γ/−LPS) PBMCs for the mass spectrometry assay or 0.5 μL of DMSO in the absence of cells for the cytotoxicity assay, and high control wells (100% kynurenine or 0% cytotoxicity) contained 0.5 μL of DMSO in the presence of stimulated (+IFN-γ/+LPS) PBMCs for both the mass spectrometry and cytotoxicity assays.
Frozen stocks of PBMCs were washed and recovered in RPMI 1640 medium (Thermo Fisher Scientific, Inc., Waltham, Mass.) supplemented with 10% v/v heat-inactivated fetal bovine serum (FBS) (Thermo Fisher Scientific, Inc., Waltham, Mass.), and 1× penicillin-streptomycin antibiotic solution (Thermo Fisher Scientific, Inc., Waltham, Mass.). The cells were diluted to 1,000,000 cells/mL in the supplemented RPMI 1640 medium. 50 μL of either the cell suspension, for the mass spectrometry assay, or medium alone, for the cytotoxicity assay, were added to the low control wells, on the previously prepared 384-well compound plates, resulting in 50,000 cells/well or 0 cells/well respectively. IFN-γ and LPS were added to the remaining cell suspension at final concentrations of 100 ng/ml and 50 ng/ml respectively, and 50 μL of the stimulated cells were added to all remaining wells on the 384-well compound plates. The plates, with lids, were then placed in a 37° C., 5% CO2 humidified incubator for 2 days.
(§3) Following incubation, the 384-well plates were removed from the incubator and allowed to equilibrate to room temperature for 30 minutes. For the cytotoxicity assay, CellTiter-Glo® was prepared according to the manufacturer's instructions, and 40 μL were added to each plate well. After a twenty minute incubation at room temperature, luminescence was read on an EnVision® Multilabel Reader (PerkinElmer Inc., Waltham, Mass.). For the mass spectrometry assay, 10 μL of supernatant from each well of the compound-treated plates were added to 40 μL of acetonitrile, containing 10 μM of an internal standard for normalization, in 384-well, polypropylene, V-bottom plates (Greiner Bio-One, Kremsmünster, Austria) to extract the organic analytes. Following centrifugation at 2000 rpm for 10 minutes, 10 μL from each well of the acetonitrile extraction plates were added to 90 μL of sterile, distilled H2O in 384-well, polypropylene, V-bottom plates for analysis of kynurenine and the internal standard on the RapidFire 300 (Agilent Technologies, Santa Clara, Calif.) and 4000 QTRAP MS (SCIEX, Framingham, Mass.). MS data were integrated using Agilent Technologies' RapidFire Integrator software, and data were normalized for analysis as a ratio of kynurenine to the internal standard. […]

[2] = biological target: T1, indoleamine 2, 3-dioxygenase (IDO1); experiment: HeLa IDOi assay (kynurenine detection by mass spectrometry); assay type: cell-based; set-up: human epithelial HeLa cells (CCL-2; host or cells: HeLa cells stimulated with human IFN-γ; conditions: IFN-γ stimulated human epithelial HeLa cells, 2 days
Experimental: as §1, with “epithelial HeLa” for “peripheral blood mononuclear”, “(CCL-2; ATCC®, Manassas, Va.)” for “(PBMC) (PB003F; AllCells®, Alameda, Calif.)”, “Mo.)” for “Mo.) and lipopolysaccharide from Salmonella minnesota (LPS) (Invivogen, San Diego, Calif.)”
as §2, with “(−IFN-γ) HeLa cells” for “(−IFN-γ/−LPS) PBMCs”, “(+IFN-γ) HeLa cells” for “(+IFN-γ/+LPS) PBMCs”
Frozen stocks of HeLa cells were washed and recovered in DMEM high glucose medium with HEPES (Thermo Fisher Scientific, Inc., Waltham, Mass.) supplemented with 10% v/v certified fetal bovine serum (FBS) (Thermo Fisher Scientific, Inc., Waltham, Mass.), and 1× penicillin-streptomycin antibiotic solution (Thermo Fisher Scientific, Inc., Waltham, Mass.). The cells were diluted to 100,000 cells/mL in the supplemented DMEM medium. 50 μL of either the cell suspension, for the mass spectrometry assay, or medium alone, for the cytotoxicity assay, were added to the low control wells, on the previously prepared 384-well compound plates, resulting in 5,000 cells/well or 0 cells/well respectively. IFN-γ was added to the remaining cell suspension at a final concentration of 10 nM, and 50 μL of the stimulated cells were added to all remaining wells on the 384-well compound plates. The plates, with lids, were then placed in a 37° C., 5% CO2 humidified incubator for 2 days.
as §3, with “instructions, and 10 μL were” for “instructions, and 40 μL were”

T1 sequence (P14902 whole entry): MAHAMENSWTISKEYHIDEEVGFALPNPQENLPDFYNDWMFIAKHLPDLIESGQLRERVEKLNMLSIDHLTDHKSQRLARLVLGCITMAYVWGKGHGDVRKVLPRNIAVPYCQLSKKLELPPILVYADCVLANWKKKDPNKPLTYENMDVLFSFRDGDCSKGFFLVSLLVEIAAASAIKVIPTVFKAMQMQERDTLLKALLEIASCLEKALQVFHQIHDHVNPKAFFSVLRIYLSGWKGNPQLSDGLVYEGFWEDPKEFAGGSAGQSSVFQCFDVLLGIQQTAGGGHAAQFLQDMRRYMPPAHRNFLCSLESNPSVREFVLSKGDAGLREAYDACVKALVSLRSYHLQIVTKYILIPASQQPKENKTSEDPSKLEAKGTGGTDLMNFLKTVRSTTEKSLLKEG

EC50 [1] [nM] | EC50 [2] [nM] | Structure (SMILES)
631 | 398 | CC(C)CN(CC(C)C)c1ccc(C(C)CC(=O)O)cc1Nc1nc2ccccc2o1 (stereo not shown) [Example 1, 3-(3-(benzo[d]oxazol-2-ylamino)-4-(diisobutylamino)phenyl)butanoic acid]
158 | 126 | COc1nccc(Nc2cc(C(C)CC(=O)O)ccc2N(CC(C)C)CC(C)C)n1 (stereo not shown) [Example 12, 3-(4-(diisobutylamino)-3-((2-methoxypyrimidin-4-yl)amino)phenyl)butanoic acid, 2,2,2-trifluoroacetic acid salt]
200 | 316 | CC(C)CN(CC(C)C)c1ccc(C(C)CC(=O)O)cc1Nc1ccncc1 (stereo not shown) [Example 18, 3-(4-(diisobutylamino)-3-(pyridin-4-ylamino)phenyl)butanoic acid]
50.1 | 100 | CC(C)CN(c1ccc(C(C)CC(=O)O)cc1NC1CCCCC1)C1CCCCC1 (stereo not shown) [Example 19, 3-(4-(cyclohexyl(isobutyl)amino)-3-(cyclohexylamino)phenyl)butanoic acid]
50.1 | 126 | CC(C)CN(c1ccc(C(C)CC(=O)O)cc1NCc1cccs1)C1CCCCC1 (stereo not shown) [Example 20, 3-(4-(cyclohexyl(isobutyl)amino)-3-((thiophen-2-ylmethyl)amino)phenyl)butanoic acid]
251 | 501 | CC(C)CN(c1ccc(C(C)CC(=O)O)cc1NCc1nccs1)C1CCCCC1 (stereo not shown) [Example 21, 3-(4-(cyclohexyl(isobutyl)amino)-3-((thiazol-2-ylmethyl)amino)phenyl)butanoic acid]
100 | 200 | CC(C)CN(c1ccc(C(C)CC(=O)O)cc1NCc1cncs1)C1CCCCC1 (stereo not shown) [Example 22, 3-(4-(cyclohexyl(isobutyl)amino)-3-((thiazol-5-ylmethyl)amino)phenyl)butanoic acid]
200 | 316 | Cc1ccccc1CNc1cc(C(C)CC(=O)O)ccc1N(CC(C)C)C1CCCCC1 (stereo not shown) [Example 23, 3-(4-(cyclohexyl(isobutyl)amino)-3-((2-methylbenzyl)amino)phenyl)butanoic acid]
25.1 | 31.6 | CC(C)CN(CC(C)C)c1ccc(C(C)CC(=O)O)cc1Nc1nc(Cl)ns1 (stereo not shown) [Example 25, 3-(3-((3-chloro-1,2,4-thiadiazol-5-yl)amino)-4-(diisobutylamino)phenyl)butanoic acid]
0.316 | 3.16 | CC(C)CN(c1ccc(C(C)CC(=O)O)cc1Nc1nnc(C(F)(F)F)s1)C1CCCCC1 (stereo not shown) [Example 29, 3-(4-(cyclohexyl(isobutyl)amino)-3-((5-(trifluoromethyl)-1,3,4-thiadiazol-2-yl)amino)phenyl)butanoic acid]
5.01 | 3.98 | CC(C)CN(CC(C)C)c1ccc(C(C)CC(=O)O)cc1Nc1nc(C(F)(F)F)ns1 (stereo not shown) [Example 34, 3-(4-(diisobutylamino)-3-((3-(trifluoromethyl)-1,2,4-thiadiazol-5-yl)amino)phenyl)butanoic acid]
1 | 2 | CC(C)CN(c1ccc([C@@H](C)CC(=O)O)cc1Nc1nc(C(F)(F)F)ns1)C1CCCCC1 [Example 37, (S)-3-(4-(cyclohexyl(isobutyl)amino)-3-((3-(trifluoromethyl)-1,2,4-thiadiazol-5-yl)amino)phenyl)butanoic acid]
1 | 3.98 | CC(C)CN(c1ccc([C@H](C)CC(=O)O)cc1Nc1nc(C(F)(F)F)ns1)C1CCCCC1 [Example 38, (R)-3-(4-(cyclohexyl(isobutyl)amino)-3-((3-(trifluoromethyl)-1,2,4-thiadiazol-5-yl)amino)phenyl)butanoic acid]
63.1 |  | CC(C)CN(c1ccc([C@H](C)CC(=O)O)cc1NC1CCCCC1)C1CCCCC1 [Example 64, (R)-3-(4-(cyclohexyl(isobutyl)amino)-3-(cyclohexylamino)phenyl)butanoic acid]
15.8 |  | CC(C)CN(c1ccc(C(C)CC(=O)O)cc1Nc1cccc(C(F)(F)F)c1)C1CCCCC1 (stereo not shown) [Example 65, 3-(4-(cyclohexyl(isobutyl)amino)-3-((3-(trifluoromethyl)phenyl)amino)phenyl)butanoic acid]
1.26 |  | CC(C)CN(c1ccc(C(C)CC(=O)O)cc1Nc1ccc(C(F)(F)F)cc1)C1CCCCC1 (stereo not shown) [Example 66, 3-(4-(cyclohexyl(isobutyl)amino)-3-((4-(trifluoromethyl)phenyl)amino)phenyl)butanoic acid]
0.794 |  | CC(C)CN(c1ccc(C(C)CC(=O)O)cc1Nc1ccc(C#N)cc1)C1CCCCC1 (stereo not shown) [Example 67, 3-(3-((4-cyanophenyl)amino)-4-(cyclohexyl(isobutyl)amino)phenyl)butanoic acid]
3.16 |  | CC(C)CN(c1ccc(C(C)CC(=O)O)cc1Nc1ccccc1)C1CCCCC1 (stereo not shown) [Example 68, 3-(4-(cyclohexyl(isobutyl)amino)-3-(phenylamino)phenyl)butanoic acid]
